Test results taken from patent US4390613A, “Diffusion transfer photographic system utilizing substituted phenylmercaptoazoles” (Polaroid Corporation, priority 1981, dated 1983).
Where two headings read alike, the source gives them in different places.

Columns and labels:
[1] = Solubility of silver salts in presence of excess anion (Table III); assay type: physicochemical
Method: The solubilities of the silver salts of PMT and compound II in the presence of excess amounts of their anions were measured at pH 7.0 and 13.5. Each solution was 4×10^-3 molar in silver. The results are shown in Table III wherein the solubility data is expressed in μmoles/liter of total silver.

[2] = Solubility product of the silver salts (Table II); assay type: physicochemical; details: for Ksp: silver salt
Text: Solubility product measurements were made for the silver salt of phenylmercaptotetrazole (PMT) at pH 13.5 and for the silver salt of compound II at pH 7 and pH 13.5 (above and below the pka of the oxime substituent).

[3] = silver salt, pH 7; Z. C. H. Tan, Photogr. Sci. Eng. 19, 17 (1975); cited from earlier work
[4] = Ionization and stability in aqueous alkaline processing composition; assay type: physicochemical
Text: However, it has been shown by experimentation that incorporating compound XI in a film unit according to the invention will provide advantageous results. Thus, it would appear that compound XI undergoes a change in aqueous alkaline processing composition and that the acetyl substituent is a precursor of a group which has the requisite properties described above which provide the desired results. […] It is therefore preferred to incorporate the compound elsewhere in the film unit, for example, in the photosensitive element.

Compound	silver solvent behavior at high pH [1]	effect of pH / ionization on solubility of the silver salt ([2]; pH 7 vs pH 13.5)	Ksp ([2]; pH 7)	Ksp ([2]; pH 13.5)	Ksp [3]	stability in aqueous alkaline processing composition ([4]; about a week or more in processing composition)	ionization of acetyl group to an anion ([4]; aqueous alkaline photographic processing composition)
CC(=NO)c1ccc(-n2nnnc2S)cc1 [Compound II]	weak to moderate silver solvent at high pH	increased the solubility of the silver salt of compound II by an order of magnitude	~ 1 × 10^-16	2 × 10^-15	–	–	–
Sc1nnnn1-c1ccccc1 [PMT, 1-phenyl-5-mercaptotetrazole, reference compound]	PMT is not	–	–	4 × 10^-16	3 × 10^-16	–	–
CC(=O)c1ccc(-n2nnnc2S)cc1 [XI]	–	–	–	–	–	long term instability characteristics	does not ionize to any appreciable extent
